{"source": "paper PMC5908160", "about": "“Inhibition of sperm motility in male macaques with EP055, a potential non-hormonal male contraceptive” (PLoS ONE, 2018)", "key": {"[1]": {"experiment": "EP054/EP055 plasma half-life in cynomolgus male macaques", "parameters": "species or system Macaca fascicularis", "settings": "cynomolgus monkey, in vivo, iv, 1 mg/kg, summary of both studies", "protocol": "Half-life measurements for EP054/EP055 were done by Sinclair Research Center, LLC (SRC) (Study No. S14109, Auxvasse, MO). This study was reviewed and approved by the Sinclair IUCAC committee and complied with all applicable sections of USDA Policy 12 and the Final Rules of the Animal Welfare Act regulation (9 CFR). This study used 3 naïve cynomolgus (Macaca fascicularis) males (3-4 yrs old, 4 kg or less). Doses of EP054 in 3% DMSO-PBS, pH 7.6 were infused by i.v. at 1.0 mg/kg. The infusion rate was 4 ml/min. Plasma samples were collected at 0, 5, 15, 30 min and 1, 4, 8 and 24 hours, and immediately frozen on dry ice. Samples were stored at -80 °C until processing.\n(§1) Sample preparation and LC-MS/MS analysis were done by OpAns LLC (Durham, NC). Plasma samples (both rat and macaque) were thawed at room temperature and processed by adding 160 µL of methanol (including 10 µL internal standard) to 25 µL of the sample. Samples were vortexed for 5 minutes, centrifuged at 2684 x g for 5 minutes. 50 µL of supernatant was removed for analysis by HPLC-MS/MS.\nTherefore, samples were analyzed for the presence of EP055."}, "[2]": {"experiment": "EP055 testis, epididymis and plasma levels in cynomolgus males after i.v. infusion", "format": "in vivo, Macaca fascicularis", "settings": "63.25 mg/kg i.v.", "text": "Evaluation of the effects of an i.v. infusion of EP055 on male cynomolgus macaque reproductive system was done by Sinclair Research Center, LLC. (Study No: S14574). This study was reviewed and approved by the Sinclair IUCAC committee and complied with all applicable sections of USDA Policy 12 and the Final Rules of the Animal Welfare Act regulation (9 CFR). This study used 6 naïve cynomolgus males (3-4 yrs old, 4 kg or less). Doses of EP055 in 5% DMSO-PBS, pH 7.6 or vehicle control were infused by i.v. at 63.25 mg/kg. The infusion rate was 4 ml/min. Plasma and tissues (epididymis and testis) were collected at 2 hr or 6 hr and immediately frozen on dry ice. Samples were stored at -80 °C until processing. Half-life was approximated using the 2 hr and 6 hr points and an estimation of the initial plasma level using the initial dose of […], the circulating blood volume of 65 ml/kg, average hematocrit of 41.7 (S2 Table) and average animal size (3.72 kg for n=4).\n(§2) Semen or tissue samples were thawed at room temperature. PBS at pH 7.6 was added to each sample at a ratio of 2:1 and sonicated in an ice chilled bath for 5 minutes before homogenization using a Polytron unit (Kinematica AG, Lucerne, Switzerland). An aliquot (25 uL) of each sample homogenate was processed as described for plasma samples."}, "[3]": {"experiment": "EP055 plasma and semen levels in rhesus males after i.v. infusion", "format": "in vivo, Macaca mulatta", "text": "Semen was collected by direct penile stimulation with a P-T Electronics Model 303 PTE 110 Volt AC stimulator equipped with electrocardiogram pad electrodes (10–35 V, 20 ms duration, 18 pulses/sec) as previously described. Semen was collected weekly for 3 weeks to establish baseline parameters for each male. Samples were inspected visually to determine sperm motility and suitability for the study. Sperm motility data from male 28106 presented in S1 Table is representative of pre-treatment samples. Immediately after collection, the seminal plug was separated from the liquefied fraction, placed into a cryovial, flash frozen in liquid nitrogen, and stored at -80C until evaluation for drug levels. Spermatozoa were prepared by centrifugation (7 min, 200 g) of the liquid portion of the ejaculate and resuspending the sperm pellet in TALP-HEPES medium containing 0.3% bovine serum albumin at 37°C. An aliquot was taken to determine concentration using a hemocytometer, percent motility and forward progression as previously described. Baseline semen samples were collected from each male twice during the week prior to treatment. Semen was collected from each male 6–8 hr, 28–30 hr, and 78 hr post-infusion of low dose EP055 (75–80 mg/kg body weight) intravenously. After a one-week recovery period, a baseline semen sample was obtained, and the following week semen samples were collected as described above after an intravenous infusion of high dose EP055 (125–130 mg/kg).\nas §1, §2\nPrior to infusion of EP055, each male was sedated with ketamine by the surgical staff at ONPRC and transported to the operating room. After positioning in dorsal recumbency, the male was intubated and placed under inhalant (isoflurane) anesthesia. Bilateral intravenous catheters were placed in cephalic veins, one for infusion and one for back-up. A percutaneous arterial line was placed in the right femoral artery for direct blood pressure measurement. Invasive blood pressure, heart rate, SpO2, and respirations were monitored by the surgical staff throughout the procedure. Initially, the low doses of EP055 in 5% DMSO-PBS 7.6 was infused by i.v. at 75-80 mg/kg, using a Medfusion 3500 pump (Smiths Medical, St. Paul, MN), and was started at a low flow rate ([…]). In 3 of 4 males, a 5-10% increase in blood pressure and heart rate were noted within the first 2-3 minutes of infusion of EP055. In these cases, the infusion was temporarily suspended until these parameters subsequently declined to normal. The infusion rate was then doubled to 1.2 ml/kg/min after 5-10 minutes and the final volume of EP055 infusate was administered. Blood pressure and heart rate remained normal throughout the rest of the infusion interval. The total volume of EP055 infusate ranged from 72 ml – 136 ml, depending upon the weight of the animal, and the duration of infusion was 10-13 minutes. Following completion of the infusion, all animals recovered normally. Animals were monitored by clinical veterinary staff immediately, at 1 hr, 2 hr and 6-8 hr post-infusion, and daily for up to 30 days after the final infusion of EP055. […]"}}, "note": "Like-named read-outs stand apart in the source and are kept apart here.", "data": [{"compound": "COC(=O)NNc1nc(Nc2ccc(NC(C)=O)c(O)c2)nc(SCC(=O)O)n1", "note": "[EP055]", "values": [{"measurement": "half-life", "setting": "[1]", "result": "10 to 12", "unit": "min"}, {"measurement": "epididymis versus testis level (ug/mg of tissue)", "setting": "[2]; 2 and 6 hours", "result": "significantly (p < 0.05) more EP055 (ug/mg of tissue) in the epididymis after 2 hours but not after 6 hours"}, {"measurement": "total amounts in testis versus epididymis", "setting": "[2]; 2 and 6 hours", "result": "not significantly different at 2 and 6 hours"}, {"measurement": "presence in testis and epididymis", "setting": "[2]; 2 and 6 hours post-infusion", "result": "detected in testis and epididymis two hours and six hours post-infusion"}, {"measurement": "half-life", "setting": "[2]; cynomolgus monkey, iv, extrapolated from 2 hr and 6 hr points and calculated initial plasma concentration, read-out: estimated plasma half-life (t1/2) in target tissue experiment", "result": 11.9, "unit": "min"}, {"measurement": "concentration", "setting": "[3]; high dose 125–130 mg/kg, 6–8 hr, read-out: Plasma levels", "result": "0.97 ± 0.66", "unit": "µM"}, {"measurement": "concentration", "setting": "[3]; high dose 125–130 mg/kg, 6–8 hr, read-out: Semen Levels", "result": 539, "unit": "µM"}, {"measurement": "concentration", "setting": "[3]; high dose 125–130 mg/kg, 13–17 days, read-out: Semen Levels", "result": "0.9 ± 0.9", "unit": "µM"}, {"measurement": "concentration", "setting": "[3]; low dose 75–80 mg/kg, 14–18 days, read-out: Semen Levels", "result": "0.4 ± 0.3", "unit": "µM"}, {"measurement": "concentration at 30 h", "setting": "[3]; rhesus monkey, plasma, iv, high dose 125–130 mg/kg, read-out: Plasma levels", "result": "0.02 ± 0.01", "unit": "µM"}, {"measurement": "concentration at 6 h", "setting": "[3]; rhesus monkey, plasma, iv, low dose 75–80 mg/kg, 6 hr after infusion, mean ± SEM 4 animals, read-out: Plasma levels", "result": "0.62 ± 0.3", "unit": "µM"}, {"measurement": "concentration at 30 h", "setting": "[3]; rhesus monkey, plasma, iv, low dose 75–80 mg/kg, read-out: Plasma levels", "result": 0.01, "unit": "µM"}, {"measurement": "concentration at 30 h", "setting": "[3]; rhesus monkey, semen, iv, high dose 125–130 mg/kg, read-out: Semen Levels", "result": 376, "unit": "µM"}, {"measurement": "concentration at 78 h", "setting": "[3]; rhesus monkey, semen, iv, high dose 125–130 mg/kg", "result": "101 ± 30", "unit": "µM"}, {"measurement": "concentration at 6 h", "setting": "[3]; rhesus monkey, semen, iv, low dose 75–80 mg/kg, 6 hr, read-out: Semen Levels", "result": 293, "unit": "µM"}, {"measurement": "concentration at 30 h", "setting": "[3]; rhesus monkey, semen, iv, low dose 75–80 mg/kg, read-out: Semen Levels", "result": "128 ± 46", "unit": "µM"}, {"measurement": "concentration at 78 h", "setting": "[3]; rhesus monkey, semen, iv, low dose 75–80 mg/kg", "result": "61 ± 22", "unit": "µM"}, {"measurement": "Kp", "setting": "[3]; rhesus monkey, semen/plasma, iv, high dose 125–130 mg/kg, 6–8 hr, read-out: Ratio of S/P", "result": 556}, {"measurement": "Kp at 6 h", "setting": "[3]; rhesus monkey, semen/plasma, iv, low dose 75–80 mg/kg, 6 hr, read-out: Ratio of S/P", "result": 473}, {"measurement": "concentration", "setting": "[3]; rhesus, 6 and 30 hours after high-dose infusion, read-out: semen levels", "result": "> 300", "unit": "µM"}, {"measurement": "detection in plasma", "setting": "[3]; rhesus, 6–8 hours post-infusion", "result": "detected"}, {"measurement": "detection in plasma", "setting": "[3]; rhesus, 28–30 hours post-infusion", "result": "barely detectable"}, {"measurement": "time semen levels detectable post-infusion", "setting": "[3]; rhesus, low and high dose", "result": "up to 78 hours"}]}]}
